In PMC8706783 (Pharmaceutics, 2021) one finds IC50 and Emax data, which are given here for two compounds.

Read-outs that look alike come from different tables or passages of the source. Bounds are passed on as bounds.

The target in one series is T1, UGT1A9 (Homo sapiens, UniProt O60656).
T1 sequence (O60656 26-530): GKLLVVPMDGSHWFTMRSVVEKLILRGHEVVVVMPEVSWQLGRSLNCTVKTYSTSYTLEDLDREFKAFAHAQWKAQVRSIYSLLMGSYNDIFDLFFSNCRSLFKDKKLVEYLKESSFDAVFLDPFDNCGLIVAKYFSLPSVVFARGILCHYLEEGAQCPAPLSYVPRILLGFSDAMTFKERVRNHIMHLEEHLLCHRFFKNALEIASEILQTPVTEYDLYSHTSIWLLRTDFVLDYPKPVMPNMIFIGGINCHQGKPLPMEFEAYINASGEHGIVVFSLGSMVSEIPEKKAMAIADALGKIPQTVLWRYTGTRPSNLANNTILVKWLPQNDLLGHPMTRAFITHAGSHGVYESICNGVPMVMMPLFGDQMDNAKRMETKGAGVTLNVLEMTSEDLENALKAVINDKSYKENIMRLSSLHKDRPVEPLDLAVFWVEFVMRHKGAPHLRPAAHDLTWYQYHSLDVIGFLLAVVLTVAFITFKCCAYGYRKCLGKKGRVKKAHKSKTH
As to the kind of experiment: Enzyme inhibition assay, UGT1A9. Format: in vitro ADME. Also on record: from tissue. Particulars: HLM; UGT1A9 mycophenolic acid glucuronidation.

In the next series the target is T2, UGT1A3 (Homo sapiens, UniProt P35503).
T2 sequence (P35503 29-534): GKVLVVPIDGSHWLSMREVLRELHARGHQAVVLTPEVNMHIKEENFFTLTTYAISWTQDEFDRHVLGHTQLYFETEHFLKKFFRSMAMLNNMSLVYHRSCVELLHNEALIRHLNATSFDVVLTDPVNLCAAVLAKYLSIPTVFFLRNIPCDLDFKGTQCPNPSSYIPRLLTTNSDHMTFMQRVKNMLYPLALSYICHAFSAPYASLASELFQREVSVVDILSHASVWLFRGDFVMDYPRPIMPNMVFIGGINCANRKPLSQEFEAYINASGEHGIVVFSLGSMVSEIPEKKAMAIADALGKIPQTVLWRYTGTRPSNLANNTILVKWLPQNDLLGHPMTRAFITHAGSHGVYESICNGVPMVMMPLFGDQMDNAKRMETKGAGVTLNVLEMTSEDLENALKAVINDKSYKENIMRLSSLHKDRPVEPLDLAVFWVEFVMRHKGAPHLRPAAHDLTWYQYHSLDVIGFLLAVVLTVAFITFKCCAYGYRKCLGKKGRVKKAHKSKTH
The series is described as follows: Enzyme inhibition assay, UGT1A3. Type of series: in vitro ADME. Also on record: from tissue. Particulars: HLM; UGT1A3 chenodeoxycholic acid 24 O-glucuronidation.

The next series addresses T3, CYP1A2 (Homo sapiens, UniProt P05177).
T3 sequence (P05177 1-516): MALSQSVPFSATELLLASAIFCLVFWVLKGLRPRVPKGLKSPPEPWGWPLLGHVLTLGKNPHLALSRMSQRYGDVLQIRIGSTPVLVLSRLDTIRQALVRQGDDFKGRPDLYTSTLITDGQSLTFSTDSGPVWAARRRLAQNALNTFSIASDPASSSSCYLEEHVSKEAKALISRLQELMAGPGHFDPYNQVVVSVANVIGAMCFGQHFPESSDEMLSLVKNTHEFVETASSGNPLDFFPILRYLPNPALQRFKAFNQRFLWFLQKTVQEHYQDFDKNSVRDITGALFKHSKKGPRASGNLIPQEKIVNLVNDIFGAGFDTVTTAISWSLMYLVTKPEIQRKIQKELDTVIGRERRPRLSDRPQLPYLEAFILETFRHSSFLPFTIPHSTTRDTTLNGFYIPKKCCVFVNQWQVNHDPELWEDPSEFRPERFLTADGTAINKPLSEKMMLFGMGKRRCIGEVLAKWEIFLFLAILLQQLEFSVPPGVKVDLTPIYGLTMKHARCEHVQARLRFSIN
As to the kind of experiment: Enzyme inhibition assay, CYP1A2.

The next series has as its target T4, CYP1B1 (Homo sapiens, UniProt Q16678).
T4 construct: purchased Corning Inc
The series is described as follows: Enzyme inhibition assay, CYP1B1. Type of series: in vitro ADME. Particulars: Recombinant CYP1B1; 7-ethoxyresorufin O-deethylation.

Another series deals with T5, UGT1A8 (Homo sapiens, UniProt Q9HAW9).
T5 sequence (Q9HAW9 26-530): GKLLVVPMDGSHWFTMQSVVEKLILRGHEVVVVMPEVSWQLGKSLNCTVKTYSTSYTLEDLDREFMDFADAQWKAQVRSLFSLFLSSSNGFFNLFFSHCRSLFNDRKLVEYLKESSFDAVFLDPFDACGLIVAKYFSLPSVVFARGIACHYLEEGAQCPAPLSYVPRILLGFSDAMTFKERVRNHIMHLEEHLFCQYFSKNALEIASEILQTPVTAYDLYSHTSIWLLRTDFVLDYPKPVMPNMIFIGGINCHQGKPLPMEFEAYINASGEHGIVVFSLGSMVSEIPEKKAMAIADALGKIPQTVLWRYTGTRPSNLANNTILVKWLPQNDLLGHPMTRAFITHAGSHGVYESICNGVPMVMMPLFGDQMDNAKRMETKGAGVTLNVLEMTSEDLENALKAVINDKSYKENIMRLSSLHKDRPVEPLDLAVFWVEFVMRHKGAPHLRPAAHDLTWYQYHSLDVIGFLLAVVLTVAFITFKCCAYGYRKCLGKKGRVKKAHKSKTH
As to the kind of experiment: Enzyme inhibition assay, UGT1A8.

Another series deals with T6, CYP1A1 (Homo sapiens, UniProt P04798).
T6 sequence (P04798 1-512): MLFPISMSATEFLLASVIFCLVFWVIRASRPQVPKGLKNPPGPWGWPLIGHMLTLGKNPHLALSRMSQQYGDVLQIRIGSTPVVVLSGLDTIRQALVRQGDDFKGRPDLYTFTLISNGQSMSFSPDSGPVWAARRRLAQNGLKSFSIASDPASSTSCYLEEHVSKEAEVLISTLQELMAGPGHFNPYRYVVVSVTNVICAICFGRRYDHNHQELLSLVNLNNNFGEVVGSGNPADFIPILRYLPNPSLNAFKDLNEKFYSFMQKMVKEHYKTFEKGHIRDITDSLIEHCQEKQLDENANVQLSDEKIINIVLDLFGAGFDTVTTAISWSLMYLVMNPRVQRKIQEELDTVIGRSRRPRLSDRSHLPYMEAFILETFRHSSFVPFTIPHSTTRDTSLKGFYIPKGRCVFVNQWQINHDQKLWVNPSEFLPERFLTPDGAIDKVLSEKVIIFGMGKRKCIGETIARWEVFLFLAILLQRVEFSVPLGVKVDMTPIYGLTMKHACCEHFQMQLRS
As to the kind of experiment: Enzyme inhibition assay, CYP1A1. Particulars: Recombinant CYP1A1; phenacetin-O-deethylation. Also noted: purchased Xenotech LLC. Type of series: in vitro ADME.

T4 sequence (Q16678 whole entry): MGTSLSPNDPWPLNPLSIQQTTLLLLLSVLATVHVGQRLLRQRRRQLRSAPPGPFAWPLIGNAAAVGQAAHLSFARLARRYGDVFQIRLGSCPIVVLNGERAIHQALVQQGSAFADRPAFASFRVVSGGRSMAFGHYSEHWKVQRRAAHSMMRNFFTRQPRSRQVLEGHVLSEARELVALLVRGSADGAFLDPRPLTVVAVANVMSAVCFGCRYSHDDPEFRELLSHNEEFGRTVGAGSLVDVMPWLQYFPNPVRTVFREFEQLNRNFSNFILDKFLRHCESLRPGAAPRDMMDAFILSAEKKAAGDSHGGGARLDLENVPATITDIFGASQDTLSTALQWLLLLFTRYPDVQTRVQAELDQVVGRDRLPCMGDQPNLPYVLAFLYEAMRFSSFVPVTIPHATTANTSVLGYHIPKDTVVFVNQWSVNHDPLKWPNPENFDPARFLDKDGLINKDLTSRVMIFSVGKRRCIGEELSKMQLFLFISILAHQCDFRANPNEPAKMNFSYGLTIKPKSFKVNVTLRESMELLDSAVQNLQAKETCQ

`Cc1cc(C)c(Nc2ccnc(Nc3ccc(C#N)cc3)n2)c(C)c1` [DPV, Dapivirine]: the IC50 (as a rule, the concentration needed to halve the response being measured) is above 30 µM at UGT1A9; 17 µM at UGT1A3; 10.5 µM against CYP1A2; 1.55 µM at CYP1B1; above 30 µM against UGT1A8; 0.5 µM at CYP1A1.

`Clc1ccc(COC(Cn2ccnc2)c2ccc(Cl)cc2Cl)c(Cl)c1` (stereo not shown) [MIC, miconazole]: the IC50 against UGT1A9 was above 30 µM; against UGT1A3 it was 13.6 µM; at CYP1A2, 5.11 µM; on CYP1B1, 0.47 µM; at UGT1A8 (Recombinant UGT1A8, 4-methylumbelliferone O-glucuronidation) it was “Apparent activation with MIC”; at CYP1A1, 0.43 µM. The Emax (as a rule, the greatest response seen or fitted, relative to the assay's reference) at 45 min on UGT1A8 (human, recombinant UGT1A8, probe 4-methylumbelliferone (2 µM), glucuronidation) turned out to be 173%.
